# According to US20240358693A1, “METHODS OF TREATING PAIN” (Aisa Pharma, Inc., priority 2023, published 2024):
# Test system: participants with Raynaud's Phenomenon secondary mostly to systemic sclerosis (SSc-RP)
# Test: Frequency of weekly symptomatic RP attacks (patient diary), Phase 2a study Part A
# Assay type: in vivo, human
# Details: ITT Part A
# Procedure: A randomized, placebo-controlled phase 2a study was performed and is in progress to assess the safety and efficacy of cilnidipine (10 mg and 20 mg) alone and in combination with 5 mg tadalafil, in participants with diagnosis of scleroderma and/or secondary Raynaud's disease.
# The relevant metrics measured by this tool daily are: • Study medication • SSc-RP symptoms (Reporting an attack including duration of attack) • Severity of the attack considering all symptoms of the attack e.g., tingling, numbness, pain, color changes (VAS 0-10 cm scale) • Participant's location at the time of the attack (inside home/outside home) • Selecting symptoms experienced during the attack (tingling, numbness, pain, color changes, other) • Pain rating during the attack (11-point Likert scale) • The RCS based on how much difficulty participants had with Raynaud's today, how many attacks the participant had, and how long they lasted. Participants will also be asked to consider how much pain, numbness, or other symptoms the Raynaud's caused in fingers (including painful sores), and how much the Raynaud's alone affected the use of hands today (VAS 0-10 cm scale).
# Percent change from baseline evaluation for frequency of weekly RP attacks were or will be used as the primary efficacy variable. The sponsor-developed participant-informed diary will be used to record data. Frequency of weekly RP attacks is defined as the total number of RP attacks divided by the number of days with available diary data within the last 7 days of each dosing period then multiplied by 7. Total number of RP attacks during the last 7 days of screening period divided by the number of days with available data then multiplied by 7 will be used as baseline for the analysis of all periods. The variable will be calculated as follows:
# Percentage change={(weekly RP attacks for the last 7 days of each dosing period−Baseline weekly RP attacks)/Baseline weekly RP attacks}*100%.
# Absolute change=weekly RP attacks for the last 7 days of each dosing period−Baseline weekly RP attacks
# Percent change from baseline evaluation for frequency of weekly RP attacks was and will be the primary efficacy endpoint. Frequency of weekly RP attacks is defined as the total number of RP attacks divided by the number of days with available diary data within the last 7 days of each dosing period then multiplied by 7. Total number of RP attacks during the last 7 days of screening period divided by the number of days with available data then multiplied by 7 will be used as baseline for the analysis of all periods.
# The following data was actually obtained in accordance with the protocol and plan delineated in Examples 1 and 2. The accompanying data involved 11 patients out of the planned 76 patient study. The study was done in patients with scleroderma (systemic sclerosis) who had relatively frequent Raynaud symptoms as they needed to average at least one attack per day during a screening period of up to two weeks. In this first phase of this double-blind placebo-controlled, prospective randomized study, patients were treated in parallel and after meeting study criteria were randomized to receive either placebo, cilnidipine 10 mg daily, cilnidipine 20 mg daily, tadalafil 5 mg daily, cilnidipine 10 mg plus 5 mg of tadalafil, or cilnidipine 20 mg plus 5 mg of tadalafil.
# [1] = Cilnidipine 10 mg, n 1, Excluding Outliers
# [2] = Cilnidipine 10 mg, n 1, by Baseline RCS, 1st block (RCS <5.0)
# [3] = Cilnidipine 20 mg, n 2, Excluding Outliers
# [4] = Cilnidipine 20 mg, n 2, by Baseline RCS, 1st block (RCS <5.0)
# [5] = Pooled Cilnidipine 10 mg and Cilnidipine 10 mg + Tadalafil 5 mg (N = 3)
# [6] = Pooled Cilnidipine 10 mg and Cilnidipine 10 mg + Tadalafil 5 mg, n 1, by Baseline RCS, 2nd block (RCS >5.0)
# [7] = Pooled Cilnidipine 10 mg and Cilnidipine 10 mg + Tadalafil 5 mg, n 2, by Baseline RCS, 1st block (RCS <5.0)
# [8] = Pooled Cilnidipine 10 mg and Cilnidipine 10 mg + Tadalafil 5 mg, n 3, Excluding Outliers
# [9] = Pooled Cilnidipine 20 mg and Cilnidipine 20 mg + Tadalafil 5 mg (N = 4)
# [10] = Pooled Cilnidipine 20 mg and Cilnidipine 20 mg + Tadalafil 5 mg, n 1, by Baseline RCS, 2nd block (RCS >5.0)
# [11] = Pooled Cilnidipine 20 mg and Cilnidipine 20 mg + Tadalafil 5 mg, n 3, by Baseline RCS, 1st block (RCS <5.0)
smiles,measurement,setting,value
"COCCOC(=O)C1=C(C)NC(C)=C(C(=O)OC/C=C/c2ccccc2)C1c1cccc([N+](=O)[O-])c1 (stereo not shown) [Cilnidipine, cilnidipine]","Weekly Symptomatic RP Attacks Change from Baseline, Mean",Cilnidipine 10 mg (N = 1),−7.00
same,"Weekly Symptomatic RP Attacks Change from Baseline, Median",Cilnidipine 10 mg (N = 1),−7.00
same,"Weekly Symptomatic RP Attacks Percent Change from Baseline, Mean",Cilnidipine 10 mg (N = 1),−33.33%
same,"Weekly Symptomatic RP Attacks Percent Change from Baseline, Median",Cilnidipine 10 mg (N = 1),−33.33%
same,"Weekly Symptomatic RP Attacks, Mean",Cilnidipine 10 mg (N = 1),14.00
same,"Weekly Symptomatic RP Attacks, Median",Cilnidipine 10 mg (N = 1),14.00
same,"Weekly Symptomatic RP Attacks Change from Baseline, Mean (SD)",[1],−7.00
same,"Weekly Symptomatic RP Attacks Change from Baseline, Median",[1],−7.00
same,"Weekly Symptomatic RP Attacks Percent Change from Baseline, Mean (SD)",[1],−33.33%
same,"Weekly Symptomatic RP Attacks Percent Change from Baseline, Median",[1],−33.33%
same,"Weekly Symptomatic RP Attacks, Mean (SD)",[1],14.00
same,"Weekly Symptomatic RP Attacks, Median",[1],14.00
same,"Weekly Symptomatic RP Attacks Change from Baseline, Mean (SD)",[2],−7.00
same,"Weekly Symptomatic RP Attacks Change from Baseline, Median",[2],−7.00
same,"Weekly Symptomatic RP Attacks Percent Change from Baseline, Mean (SD)",[2],−33.33%
same,"Weekly Symptomatic RP Attacks Percent Change from Baseline, Median",[2],−33.33%
same,"Weekly Symptomatic RP Attacks, Mean (SD)",[2],14.00
same,"Weekly Symptomatic RP Attacks, Median",[2],14.00
same,"Weekly Symptomatic RP Attacks Change from Baseline, Mean",Cilnidipine 20 mg (N = 2),−4.50
same,"Weekly Symptomatic RP Attacks Change from Baseline, Median",Cilnidipine 20 mg (N = 2),−4.50
same,"Weekly Symptomatic RP Attacks Percent Change from Baseline, Mean",Cilnidipine 20 mg (N = 2),−33.73%
same,"Weekly Symptomatic RP Attacks Percent Change from Baseline, Median",Cilnidipine 20 mg (N = 2),−33.73%
same,"Weekly Symptomatic RP Attacks, Mean",Cilnidipine 20 mg (N = 2),8.00
same,"Weekly Symptomatic RP Attacks, Median",Cilnidipine 20 mg (N = 2),8.00
same,"Weekly Symptomatic RP Attacks Change from Baseline, Mean (SD)",[3],−4.50 (3.536)
same,"Weekly Symptomatic RP Attacks Change from Baseline, Median",[3],−4.50
same,"Weekly Symptomatic RP Attacks Percent Change from Baseline, Mean (SD)",[3],−33.73 (7.296) %
same,"Weekly Symptomatic RP Attacks Percent Change from Baseline, Median",[3],−33.73%
same,"Weekly Symptomatic RP Attacks, Mean (SD)",[3],8.00 (4.243)
same,"Weekly Symptomatic RP Attacks, Median",[3],8.00
same,"Weekly Symptomatic RP Attacks Change from Baseline, Mean (SD)",[4],−4.50 (3.536)
same,"Weekly Symptomatic RP Attacks Change from Baseline, Median",[4],−4.50
same,"Weekly Symptomatic RP Attacks Percent Change from Baseline, Mean (SD)",[4],−33.73 (7.296) %
same,"Weekly Symptomatic RP Attacks Percent Change from Baseline, Median",[4],−33.73%
same,"Weekly Symptomatic RP Attacks, Mean (SD)",[4],8.00 (4.243)
same,"Weekly Symptomatic RP Attacks, Median",[4],8.00
same,"Weekly Symptomatic RP Attacks Change from Baseline, Mean",[5],−4.67
same,"Weekly Symptomatic RP Attacks Change from Baseline, Median",[5],−4.00
same,"Weekly Symptomatic RP Attacks Percent Change from Baseline, Mean",[5],−40.21%
same,"Weekly Symptomatic RP Attacks Percent Change from Baseline, Median",[5],−42.86%
same,"Weekly Symptomatic RP Attacks, Mean",[5],7.67
same,"Weekly Symptomatic RP Attacks, Median",[5],5.00
same,"Weekly Symptomatic RP Attacks Change from Baseline, Mean (SD)",[6],−3.00
same,"Weekly Symptomatic RP Attacks Change from Baseline, Median",[6],−3.00
same,"Weekly Symptomatic RP Attacks Percent Change from Baseline, Mean (SD)",[6],−42.86%
same,"Weekly Symptomatic RP Attacks Percent Change from Baseline, Median",[6],−42.86%
same,"Weekly Symptomatic RP Attacks, Mean (SD)",[6],4.00
same,"Weekly Symptomatic RP Attacks, Median",[6],4.00
same,"Weekly Symptomatic RP Attacks Change from Baseline, Mean (SD)",[7],−5.50 (2.121)
same,"Weekly Symptomatic RP Attacks Change from Baseline, Median",[7],−5.50
same,"Weekly Symptomatic RP Attacks Percent Change from Baseline, Mean (SD)",[7],−38.89 (7.857) %
same,"Weekly Symptomatic RP Attacks Percent Change from Baseline, Median",[7],−38.89%
same,"Weekly Symptomatic RP Attacks, Mean (SD)",[7],9.50 (6.364)
same,"Weekly Symptomatic RP Attacks, Median",[7],9.50
same,"Weekly Symptomatic RP Attacks Change from Baseline, Mean (SD)",[8],−4.67 (2.082)
same,"Weekly Symptomatic RP Attacks Change from Baseline, Median",[8],−4.00
same,"Weekly Symptomatic RP Attacks Percent Change from Baseline, Mean (SD)",[8],−40.21 (6.009) %
same,"Weekly Symptomatic RP Attacks Percent Change from Baseline, Median",[8],−42.86%
same,"Weekly Symptomatic RP Attacks, Mean (SD)",[8],7.67 (5.508)
same,"Weekly Symptomatic RP Attacks, Median",[8],5.00
same,"Weekly Symptomatic RP Attacks Change from Baseline, Mean",[9],−3.63
same,"Weekly Symptomatic RP Attacks Change from Baseline, Median",[9],−3.50
same,"Weekly Symptomatic RP Attacks Percent Change from Baseline, Mean",[9],−25.00%
same,"Weekly Symptomatic RP Attacks Percent Change from Baseline, Median",[9],−28.17%
same,"Weekly Symptomatic RP Attacks, Mean",[9],9.75
same,"Weekly Symptomatic RP Attacks, Median",[9],10.50
same,"Weekly Symptomatic RP Attacks Change from Baseline, Mean (SD)",[10],−0.50
same,"Weekly Symptomatic RP Attacks Change from Baseline, Median",[10],−0.50
same,"Weekly Symptomatic RP Attacks Percent Change from Baseline, Mean (SD)",[10],−4.76%
same,"Weekly Symptomatic RP Attacks Percent Change from Baseline, Median",[10],−4.76%
same,"Weekly Symptomatic RP Attacks, Mean (SD)",[10],10.00
same,"Weekly Symptomatic RP Attacks, Median",[10],10.00
same,"Weekly Symptomatic RP Attacks Change from Baseline, Mean (SD)",[11],−4.67 (2.517)
same,"Weekly Symptomatic RP Attacks Change from Baseline, Median",[11],−5.00
same,"Weekly Symptomatic RP Attacks Percent Change from Baseline, Mean (SD)",[11],−31.75 (6.199) %
same,"Weekly Symptomatic RP Attacks Percent Change from Baseline, Median",[11],−28.57%
same,"Weekly Symptomatic RP Attacks, Mean (SD)",[11],9.67 (4.163)
same,"Weekly Symptomatic RP Attacks, Median",[11],11.00
same,"Weekly Symptomatic RP Attacks Change from Baseline, Mean (SD)","Pooled Cilnidipine 20 mg and Cilnidipine 20 mg + Tadalafil 5 mg, n 4, Excluding Outliers",−3.63 (2.926)
